Reference: ChEMBL document CHEMBL1275353, “4-Phenylcoumarins from Mesua elegans with acetylcholinesterase inhibitory activity” (Bioorg Med Chem, 2010)

Biological target: Acetylcholinesterase (Electrophorus electricus, UniProt O42275)
Sequence (O42275 whole entry): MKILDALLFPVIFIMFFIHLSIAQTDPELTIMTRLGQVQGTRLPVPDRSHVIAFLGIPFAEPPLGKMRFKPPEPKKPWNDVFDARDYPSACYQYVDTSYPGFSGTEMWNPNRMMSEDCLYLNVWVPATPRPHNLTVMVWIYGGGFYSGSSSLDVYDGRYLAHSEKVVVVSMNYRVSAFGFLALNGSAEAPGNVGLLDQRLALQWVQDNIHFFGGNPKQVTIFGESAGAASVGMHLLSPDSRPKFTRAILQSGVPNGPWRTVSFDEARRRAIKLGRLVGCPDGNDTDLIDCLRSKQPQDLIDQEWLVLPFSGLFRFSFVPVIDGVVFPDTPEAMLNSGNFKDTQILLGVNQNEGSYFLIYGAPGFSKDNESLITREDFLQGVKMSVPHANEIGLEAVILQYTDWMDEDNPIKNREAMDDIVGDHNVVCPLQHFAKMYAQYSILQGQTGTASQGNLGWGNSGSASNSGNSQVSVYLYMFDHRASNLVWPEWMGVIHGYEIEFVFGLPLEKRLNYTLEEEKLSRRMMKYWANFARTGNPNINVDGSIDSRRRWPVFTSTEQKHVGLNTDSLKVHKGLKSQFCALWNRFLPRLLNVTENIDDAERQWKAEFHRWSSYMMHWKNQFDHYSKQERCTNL
Description: Inhibition of Electrophorus electricus AChE after 120 secs by Ellman spectroscopic method

| SMILES | IC50 [µM] |
| --- | --- |
| CCC(C)C(=O)c1c(O)c2c(c3c(-c4ccccc4)cc(=O)oc13)OC(C)(CCC=C(C)C)C=C2 (centres undefined) [MESUAGENIN B] | 0.7 |
| CCC(C)C(=O)c1c(O)c(C/C=C(\C)CCC=C(C)C)c(O)c2c(-c3ccccc3)cc(=O)oc12 (centres undefined) | 3.06 |
| CC(C)=CCCC1(C)C=Cc2c(O)c(C(=O)CC(C)C)c3oc(=O)cc(-c4ccccc4)c3c2O1 (centres undefined) [MESUAGENIN A] | 1.06 |
| CC(C)CC(=O)c1c(O)c2c(c3c(-c4ccccc4)cc(=O)oc13)OC(C(C)(C)O)C2 (centres undefined) | > 20 |
| CC(C)=CCC/C(C)=C/Cc1c(O)c(C(=O)C(C)C)c2oc(=O)cc(-c3ccccc3)c2c1O [MESUAGENIN C] | > 20 |
| CC(C)=CCC/C(C)=C/Cc1c(O)c(C(=O)CC(C)C)c2oc(=O)cc(-c3ccccc3)c2c1O | > 20 |
| CC(C)CC(=O)c1c(O)c2c(c3c(-c4ccccc4)cc(=O)oc13)OC(C)(C)C=C2 [ISOMAMMEIGIN] | > 20 |
| CC(C)=CCc1c(O)c(C(=O)CC(C)C)c2oc(=O)cc(-c3ccccc3)c2c1O [ISOMAMMEISIN] | > 20 |
| CC(C)CCC(C)(O)C1(C)Cc2c(O)c(C(=O)CC(C)C)c3oc(=O)cc(-c4ccccc4)c3c2O1 (centres undefined) [MESUAGENIN D] | 8.73 |
